Measured values reported in PubChem BioAssay (NCI).
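Dose response: 5 concentrations. Exposure: 48 h. Format: 96-well plates. Endpoint: linear interpolation; highest concentration if not reached. Here, GI50 denotes the concentration required for 50% inhibition of growth. At the TGI there is no net growth.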

Legend:
Experiment in all cases: inhibition of tumour cell growth, NCI panel, 48 h
HT29 colon = test system: HT29 colon
SK-MEL-5 melanoma = test system: SK-MEL-5 melanoma
M14 melanoma = test system: M14 melanoma
NCI-H522 lung = test system: NCI-H522 lung
786-0 renal = test system: 786-0 renal
SF-295 CNS = test system: SF-295 CNS
HCC-2998 colon = test system: HCC-2998 colon
SNB-19 CNS = test system: SNB-19 CNS
SNB-75 CNS = test system: SNB-75 CNS
U251 CNS = test system: U251 CNS
UACC-62 melanoma = test system: UACC-62 melanoma
SF-539 CNS = test system: SF-539 CNS
SK-OV-3 ovarian = test system: SK-OV-3 ovarian
MALME-3M melanoma = test system: MALME-3M melanoma
MCF7 breast = test system: MCF7 breast
HOP-92 NSCLC = test system: HOP-92 NSCLC
A498 renal = test system: A498 renal
HS 578T breast = test system: HS 578T breast
IGROV1 ovarian = test system: IGROV1 ovarian
CAKI-1 renal = test system: CAKI-1 renal
NCI-H226 lung = test system: NCI-H226 lung
RXF 393 renal = test system: RXF 393 renal
EKVX NSCLC = test system: EKVX NSCLC
CCRF-CEM leukemia = test system: CCRF-CEM leukemia
OVCAR-5 ovarian = test system: OVCAR-5 ovarian
DU-145 prostate = test system: DU-145 prostate
OVCAR-4 ovarian = test system: OVCAR-4 ovarian
HCT-15 colon = test system: HCT-15 colon
RPMI-8226 leukemia = test system: RPMI-8226 leukemia
TK-10 renal = test system: TK-10 renal
SK-MEL-2 melanoma = test system: SK-MEL-2 melanoma
HOP-62 NSCLC = test system: HOP-62 NSCLC
K-562 leukemia = test system: K-562 leukemia
NCI/ADR-RES ovarian = test system: NCI/ADR-RES ovarian
MDA-MB-231 breast = test system: MDA-MB-231 breast
LOX IMVI melanoma = test system: LOX IMVI melanoma
SK-MEL-28 melanoma = test system: SK-MEL-28 melanoma
UACC-257 melanoma = test system: UACC-257 melanoma
SF-268 CNS = test system: SF-268 CNS
NCI-H460 lung = test system: NCI-H460 lung
KM12 colon = test system: KM12 colon
BT-549 breast = test system: BT-549 breast
OVCAR-3 ovarian = test system: OVCAR-3 ovarian
OVCAR-8 ovarian = test system: OVCAR-8 ovarian
NCI-H23 lung = test system: NCI-H23 lung
COLO 205 colon = test system: COLO 205 colon
T-47D breast = test system: T-47D breast
MOLT-4 leukemia = test system: MOLT-4 leukemia
HCT-116 colon = test system: HCT-116 colon
SW-620 colon = test system: SW-620 colon
SN12C renal = test system: SN12C renal
A549 NSCLC = test system: A549 NSCLC
PC-3 prostate = test system: PC-3 prostate
UO-31 renal = test system: UO-31 renal

COc1ccc(/C(COc2ccc3c(c2)oc(=O)c2cc(OC)ccc23)=N/O)cc1 was tested, and the GI50 (HT29 colon) was 3.72 µM, the TGI (HT29 colon) was 74.8 µM and the GI50 (SK-MEL-5 melanoma) was 4.27 µM. The TGI (SK-MEL-5 melanoma) was 69.4 µM, the GI50 (M14 melanoma) was 4.29 µM and the TGI (M14 melanoma) was > 100 µM. It also gave a GI50 (NCI-H522 lung) of 3.55 µM, a TGI (NCI-H522 lung) of 19.1 µM and a GI50 (786-0 renal) of 14.8 µM. For the same molecule, the TGI (786-0 renal) was > 100 µM, the GI50 (SF-295 CNS) was 6.2 µM and the TGI (SF-295 CNS) was > 100 µM. The GI50 (HCC-2998 colon) was 7.64 µM, the TGI (HCC-2998 colon) was > 100 µM and the GI50 (SNB-19 CNS) was 4.34 µM. The TGI (SNB-19 CNS) was > 100 µM, the GI50 (SNB-75 CNS) was 2.73 µM and the TGI (SNB-75 CNS) was 9.98 µM. For the same molecule, the GI50 (U251 CNS) was 5.08 µM, the TGI (U251 CNS) was > 100 µM and the GI50 (UACC-62 melanoma) was 3.94 µM. The TGI (UACC-62 melanoma) was > 100 µM, the GI50 (SF-539 CNS) was 8.33 µM and the TGI (SF-539 CNS) was 51.3 µM. The GI50 (SK-OV-3 ovarian) was 37.4 µM, the TGI (SK-OV-3 ovarian) was > 100 µM and the GI50 (MALME-3M melanoma) was 65.7 µM. The TGI (MALME-3M melanoma) was > 100 µM, the GI50 (MCF7 breast) was 4.16 µM and the TGI (MCF7 breast) was > 100 µM. For the same molecule, the GI50 (HOP-92 NSCLC) was 80.9 µM, the TGI (HOP-92 NSCLC) was > 100 µM and the GI50 (A498 renal) was 3.22 µM. The TGI (A498 renal) was 52.2 µM, the GI50 (HS 578T breast) was 10.6 µM and the TGI (HS 578T breast) was > 100 µM. For the same molecule, the GI50 (IGROV1 ovarian) was 4.87 µM, the TGI (IGROV1 ovarian) was > 100 µM and the GI50 (CAKI-1 renal) was 6.4 µM. For the same molecule, the TGI (CAKI-1 renal) was > 100 µM, the GI50 (NCI-H226 lung) was 41.7 µM and the TGI (NCI-H226 lung) was > 100 µM. The GI50 (RXF 393 renal) was 26.8 µM, the TGI (RXF 393 renal) was > 100 µM and the GI50 (EKVX NSCLC) was 23.7 µM. For the same molecule, the TGI (EKVX NSCLC) was > 100 µM, the GI50 (CCRF-CEM leukemia) was 8.05 µM and the TGI (CCRF-CEM leukemia) was > 100 µM. The GI50 (OVCAR-5 ovarian) was > 100 µM, the TGI (OVCAR-5 ovarian) was > 100 µM and the GI50 (DU-145 prostate) was 29.2 µM. For the same molecule, the TGI (DU-145 prostate) was > 100 µM, the GI50 (OVCAR-4 ovarian) was 24.7 µM and the TGI (OVCAR-4 ovarian) was > 100 µM. For the same molecule, the GI50 (HCT-15 colon) was 5.16 µM, the TGI (HCT-15 colon) was > 100 µM and the GI50 (RPMI-8226 leukemia) was 5.44 µM. For the same molecule, the TGI (RPMI-8226 leukemia) was > 100 µM, the GI50 (TK-10 renal) was 8.14 µM and the TGI (TK-10 renal) was > 100 µM. The GI50 (SK-MEL-2 melanoma) was 15.2 µM, the TGI (SK-MEL-2 melanoma) was > 100 µM and the GI50 (HOP-62 NSCLC) was 8.86 µM. The TGI (HOP-62 NSCLC) was > 100 µM, the GI50 (K-562 leukemia) was 5.36 µM and the TGI (K-562 leukemia) was > 100 µM. It also gave a GI50 (NCI/ADR-RES ovarian) of 2.96 µM, a TGI (NCI/ADR-RES ovarian) of 9.76 µM and a GI50 (MDA-MB-231 breast) of 10.8 µM. The TGI (MDA-MB-231 breast) was > 100 µM, the GI50 (LOX IMVI melanoma) was 8.12 µM and the TGI (LOX IMVI melanoma) was 67.2 µM. For the same molecule, the GI50 (SK-MEL-28 melanoma) was 4.86 µM, the TGI (SK-MEL-28 melanoma) was > 100 µM and the GI50 (UACC-257 melanoma) was 24.8 µM. The TGI (UACC-257 melanoma) was > 100 µM, the GI50 (SF-268 CNS) was 8.33 µM and the TGI (SF-268 CNS) was > 100 µM. For the same molecule, the GI50 (NCI-H460 lung) was 3.97 µM, the TGI (NCI-H460 lung) was > 100 µM and the GI50 (KM12 colon) was 4.67 µM. The TGI (KM12 colon) was > 100 µM, the GI50 (BT-549 breast) was 15 µM and the TGI (BT-549 breast) was > 100 µM. The GI50 (OVCAR-3 ovarian) was 3.68 µM, the TGI (OVCAR-3 ovarian) was > 100 µM and the GI50 (OVCAR-8 ovarian) was 11.4 µM. The TGI (OVCAR-8 ovarian) was > 100 µM, the GI50 (NCI-H23 lung) was 20.5 µM and the TGI (NCI-H23 lung) was > 100 µM. For the same molecule, the GI50 (COLO 205 colon) was 3.75 µM, the TGI (COLO 205 colon) was > 100 µM and the GI50 (T-47D breast) was 6.9 µM. For the same molecule, the TGI (T-47D breast) was > 100 µM, the GI50 (MOLT-4 leukemia) was 5.86 µM and the TGI (MOLT-4 leukemia) was > 100 µM. The GI50 (HCT-116 colon) was 4.18 µM, the TGI (HCT-116 colon) was > 100 µM and the GI50 (SW-620 colon) was 4.34 µM. The TGI (SW-620 colon) was > 100 µM, the GI50 (SN12C renal) was 13.6 µM and the TGI (SN12C renal) was > 100 µM. For the same molecule, the GI50 (A549 NSCLC) was 7.41 µM, the TGI (A549 NSCLC) was > 100 µM and the GI50 (PC-3 prostate) was 7.28 µM. For the same molecule, the TGI (PC-3 prostate) was > 100 µM, the GI50 (UO-31 renal) was 17.1 µM and the TGI (UO-31 renal) was > 100 µM.
